The text below walks through data of article PMC10054553, “Development of the First ^18F-Labeled Radiohybrid-Based Minigastrin Derivative with High Target Affinity and Tumor Accumulation by Substitution of the Chelating Moiety” (Pharmaceutics, 2023).

Each structure is given as a SMILES string. Read-outs that look alike come from different tables or passages of the source.

Data set [1] in a line: Stability studies in human serum. The note with it: 37 °C; for SiOH-containing analog (%): 24 h, n = 3, analog with hydrolyzed SiFA moiety; for remaining at 24 h, 5 µM: human, n = 3, read-out: Intact peptide (%). Type of data set: in vitro ADME. As to the method: In vitro stability studies in human serum after incubation at 37 °C for 24 h were performed as described in the Supplemental Material.
Stability Studies in Human Serum. The 177Lu- as well as 67Ga-labeled CCK-2R ligands (1 nmol,
approx. 5 MBq) were incubated for 24 h in human serum (200 μL) at 37 °C. After incubation, ice-cold
EtOH (125 μL) and MeCN (375 μL) were added and the suspension was centrifuged for 5 min at
5000 rpm. Then, the supernatant was transferred into new vials and centrifuged for another 5 min at
5000 rpm. After separating the precipitate from the solution, the stability of the ligands was determined

Data set [2] can be described thus: Lipophilicity (logD7.4), n-octanol/PBS pH 7.4. In kind it is physicochemical. The method, then:
Cell-based experiments and determination of lipophilicity (logD7.4) were performed as previously published. A detailed description of the in vitro experiments is provided in the Supplementary Materials.
Cell Culture. CCK-2R-expressing rat pancreatic cancer cells AR42J (CLS GmbH, Eppelheim, Germany) were cultivated in monolayers in CELLSTAR® cell culture flasks acquired from Greiner Bio-One GmbH (Frickenhausen, Germany) at 37°C in a humidified atmosphere (5% CO2) using a HERAcell 150i-Incubator (Thermo Fisher Scientific Inc., Waltham, United States). The nutrient medium RPMI 1640 medium, supplemented with 5 mM L-Gln 5 mL non-essential amino acids (100×) and 10% FCS, was used. Furthermore, a Dulbecco’s PBS solution with 0.1% EDTA (v/v) was applied to detach the cells for cell passaging. The detached cells were counted using a Neubauer hemocytometer (Paul Marienfeld, Lauda-Königshofen, Germany). In addition, all operations under sterile conditions were accomplished using a MSC-Advantage safety workbench (Thermo Fisher Scientific Inc., Waltham, United States).
Determination of IC50. AR42J cells (2.0 × 10^5 cells/well) were seeded into 24-well plates 24 ± 2 h prior to testing using 1 mL of nutrient medium (RPMI 1640, 5 mM L-Gln, 5 mL non-essential amino acids (100×), 10% FCS). Cells were incubated at 37°C in a humidified atmosphere (5% CO2).
After the removal of the medium, each well was washed with 500 μL PBS. For the cell-based assay, 200 μL of the nutrient medium (+5% BSA), [ 177Lu]Lu-DOTA-PP-F11N (25 μL, 0.3 pmol) as a radiolabeled reference and 25 μL of the peptide of interest in increasing concentrations (10 −10 to 10−4 M) were added to the cells in triplicate. Thereafter, the assay was incubated for 3 h at 37°C and the supernatant was collected. The cells were washed with 300 μL PBS and the collected supernatant fractions were unified.
After lysis of the cells with NaOH (300 μL, 1 N) for 15 min, the respective wells were washed with NaOH (300 μ L, 1 N) and both fractions were unified. The radioactivity of both the supernatant and the lysed fractions were quantified using a γ-counter (PerkinElmer Inc., Waltham, United States). The obtained data were evaluated via the GraphPad PRISM software (GraphPad Software Inc., La Jolla, United States), which calculates the half-maximal inhibitory concentration (IC50) of the peptides.
Internalization Studies. For the determination of the internalization kinetics of the various peptides, AR42J cells (3.0 × 10^5 cells/well) were seeded into polylysine-coated 24-well plates, adding 1 mL of nutrient medium. Afterwards, the cells were incubated for 24 ± 2 h at 37°C in a humidified atmosphere […]
On the day of the experiment, the medium was removed, and each well was washed with nutrient medium (300 μL). Afterwards 200 μL of nutrient medium, 25 μL of the 177Lu-labeled peptide (0.3 pmol, n = 6) and either 25 μL of nutrient medium for internalization studies ( n = 3) or 25 μL of [natLu]Lu-DOTA-PP-F11N (10 μmol) for competition studies ( n = 3) were added. Thereafter, the assay was incubated for various time points (1, 2, 4 and 6 h) at 37°C in a humidified atmosphere (5% CO2). After incubation, the cells were put on ice for at least 1 min to stop internalization kinetics and the supernatant was collected. Then, the cells were washed with an ice-cold nutrient medium (300 μL) and both fractions were unified. […] The radioactivity of the supernatant, the acid wash and the lysed fractions were quantified using a γ-counter. […]

Data set [3] can be described thus: µPET/CT imaging in an AR42J tumor-bearing mouse. In kind it is in vivo, mice. The note with it: 100 pmol, n = 1. The method, then:
Biodistribution studies (n = 4) and µSPECT/CT as well as µPET/CT imaging (using a MILabs VECTor^4 small-animal SPECT/PET/OI/CT device, MILabs, Utrecht, The Netherlands) at 1 and 24 h p.i. were carried out as previously published. For all ^177Lu-labeled compounds, approximately 2–3 MBq (100 pmol)—and for the ^18F-labeled analog, approximately 7 MBq (100 pmol)—were administered. For all competition studies, 2.90 mg/kg (40 nmol) of [^natLu]Lu-DOTA-MGS5 (10^−3 M in phosphate-buffered saline) were co-administered.
Moreover, the chemically identical compound, [^18F]F-[^natLu]Lu-DOTA-rhCCK-18, was evaluated via µPET/CT in a AR42J tumor-bearing mouse (n = 1), which confirmed high tumor and kidney uptake at 1 h p.i. and low overall off-target accumulation (Figure 5, right).
Figure 5 Representative µSPECT/CT images of [^177Lu]Lu-DOTA-rhCCK-18 at 1 and 24 h p.i. (left) and µPET/CT image of [^18F]F-[^natLu]Lu-DOTA-rhCCK-18 at 1 h p.i. (right) in AR42J tumor-bearing CB17- SCID mice (100 pmol each). Tumors (T) are indicated by white arrows. Kidney (K) and tumor (T) values are depicted at the bottom. TEXT PRINTED IN THE PICTURE: [^177Lu]Lu-DOTA-rhCCK-18: T: 24.1 %ID/g (1 h p.i.); K: 97.2 %ID/g (1 h p.i.); T: 25.4 %ID/g (24 h p.i.); K: 134 %ID/g (24 h p.i.) | [^18F]F-[^natLu]Lu-DOTA-rhCCK-18: T: 31.2 %ID/g (1 h p.i.); K: 146 %ID/g (1 h p.i.)

Regarding `CCCC[C@H](NC(=O)[C@H](Cc1c[nH]c2ccccc12)NC(=O)CNC(=O)[C@H](Cc1ccc(O)cc1)NC(=O)[C@H](C)NC(=O)CC[C@@H](NC(=O)CC[C@@H](NC(=O)CC[C@@H](NC(=O)CC[C@@H](NC(=O)CC[C@@H](NC(=O)CC[C@@H](NC(=O)CC[C@@H](NC(=O)CC[C@@H](NC(=O)[C@@H](CNC(=O)c1ccc([Si](F)(C(C)(C)C)C(C)(C)C)cc1)NC(=O)CN1CCN(CC(=O)O)CCN(CC(=O)O)CCN(CC(=O)O)CC1)C(=O)O)C(=O)O)C(=O)O)C(=O)O)C(=O)O)C(=O)O)C(=O)O)C(=O)O)C(=O)N[C@@H](CC(=O)O)C(=O)N[C@@H](Cc1ccccc1)C(N)=O` [[^67Ga]Ga-DOTA-rhCCK-18, metal not drawn], in data set [1], the “SiOH-containing analog (%)” value is given as 53.6 ± 6.6% and the remaining at 24 h, 5 µM came to 43.7 ± 6.9%.

As for `CCCC[C@H](NC(=O)[C@H](Cc1c[nH]c2ccccc12)NC(=O)CNC(=O)[C@H](Cc1ccc(O)cc1)NC(=O)[C@H](C)NC(=O)CC[C@@H](NC(=O)CC[C@@H](NC(=O)CC[C@@H](NC(=O)CC[C@@H](NC(=O)CC[C@@H](NC(=O)CC[C@@H](NC(=O)CC[C@@H](NC(=O)CC[C@@H](NC(=O)[C@@H](CNC(=O)c1ccc([Si](F)(C(C)(C)C)C(C)(C)C)cc1)NC(=O)CN1CCN(CC(=O)O)CCN(CC(=O)O)CCN(CC(=O)O)CC1)C(=O)O)C(=O)O)C(=O)O)C(=O)O)C(=O)O)C(=O)O)C(=O)O)C(=O)O)C(=O)N[C@@H](CC(=O)O)C(=O)N[C@@H](Cc1ccccc1)C(N)=O` [[^18F]F-[^natLu]Lu-DOTA-rhCCK-18] [metal not drawn], in data set [2] (n-octanol/PBS pH 7.4), the logD7.4 is given as −2.71 ± 0.04.

In the case of `CCCC[C@H](NC(=O)[C@H](Cc1c[nH]c2ccccc12)NC(=O)CNC(=O)[C@H](Cc1ccc(O)cc1)NC(=O)[C@H](C)NC(=O)CC[C@@H](NC(=O)CC[C@@H](NC(=O)CC[C@@H](NC(=O)CC[C@@H](NC(=O)CC[C@@H](NC(=O)CC[C@@H](NC(=O)CC[C@@H](NC(=O)CC[C@@H](NC(=O)[C@@H](CNC(=O)c1ccc([Si](F)(C(C)(C)C)C(C)(C)C)cc1)NC(=O)CN1CCN(CC(=O)O)CCN(CC(=O)O)CCN(CC(=O)O)CC1)C(=O)O)C(=O)O)C(=O)O)C(=O)O)C(=O)O)C(=O)O)C(=O)O)C(=O)O)C(=O)N[C@@H](CC(=O)O)C(=O)N[C@@H](Cc1ccccc1)C(N)=O` [[^18F]F-[^natLu]Lu-DOTA-rhCCK-18, metal not drawn], the tissue uptake at 1 h in data set [3] (CB17-SCID, mouse, kidney, total radioactivity, 1 h p.i., read-out: Kidney (K) value, µPET/CT) amounted to 146 %ID/g; in data set [3] (CB17-SCID, mouse, tumor, total radioactivity, 1 h p.i., read-out: Tumor (T) value, µPET/CT), 31.2 %ID/g; in data set [3] (bone, µPET/CT mouse, read-out: bone uptake), 1.69 %ID/g.

For the compound `CCCC[C@H](NC(=O)[C@H](Cc1c[nH]c2ccccc12)NC(=O)CNC(=O)[C@H](Cc1ccc(O)cc1)NC(=O)[C@H](C)NC(=O)CC[C@@H](NC(=O)CC[C@@H](NC(=O)CC[C@@H](NC(=O)CC[C@@H](NC(=O)CC[C@@H](NC(=O)CC[C@@H](NC(=O)[C@@H](CNC(=O)c1ccc([Si](F)(C(C)(C)C)C(C)(C)C)cc1)NC(=O)CN1CCN(CC(=O)O)CCN(CC(=O)O)CCN(CC(=O)O)CC1)C(=O)O)C(=O)O)C(=O)O)C(=O)O)C(=O)O)C(=O)O)C(=O)N[C@@H](CC(=O)O)C(=O)N[C@@H](Cc1ccccc1)C(N)=O` [[^67Ga]Ga-DOTA-rhCCK-16, metal not drawn], the “SiOH-containing analog (%)” value in data set [1] (listed as [67Ga]Ga-DOTA-rhCCK-16) came out at 56.5 ± 8.0%. For the same compound, the remaining at 24 h, 5 µM in data set [1] worked out at 39.6 ± 7.9%.

In data set [2] (pH 7.4), `CCCC[C@H](NC(=O)[C@H](Cc1c[nH]c2ccccc12)NC(=O)CNC(=O)[C@H](Cc1ccc(O)cc1)NC(=O)[C@H](C)NC(=O)[C@@H](CCC(=O)O)NC(=O)[C@@H](CCC(=O)O)NC(=O)[C@@H](CCC(=O)O)NC(=O)[C@@H](CCC(=O)O)NC(=O)[C@@H](CCC(=O)O)NC(=O)[C@@H](CCC(=O)O)NC(=O)CC[C@H](C(=O)O)N1CCN(CC(=O)O)CCN(CC(=O)O)CCN(CC(=O)O)CC1)C(=O)N[C@@H](CC(=O)O)C(=O)N[C@@H](Cc1ccccc1)C(N)=O` [[^177Lu]Lu-(R)-DOTAGA-PP-F11N, metal not drawn] came in with a log distribution coefficient (logD) of -3.95 ± 0.06.
